From BindingDB's records for doi:10.1002/cbic.201600598 (Griffith University, 2017) come the findings set out here.

As usually defined, the IC50 is the concentration that inhibits the measured activity by half.

In this experiment the target is Carbonic anhydrase 2 (Homo sapiens, UniProt P00918). The experiment is described as follows: Fluorescence-Based CA II Binding Assay. To be noted: pH 7; 25 °C. As for the experimental part:
The assay was performed according to a previously reported protocol.[Banerjee et al., Biochemistry, 44:3673-3682] DNSA stock solution was prepared at 1 mm in DMSO/water (1:1). CA II (1 mm) was added to the test probe (over a 0.1-100 mm concentration range) in HEPES buffer [HEPES (25 mm) with acetonitrile (10 %), pH 7.0] and mixed well. DNSA (0.1 mm) was added, and the resulting solution was incubated at RT for 10 min and then transferred into a black-wall 96-well plate (final volume […]). The fluorescence was measured with a Spectra Max 250 plate reader (Molecular Devices, Sunnyvale, CA, USA) at an excitation of 285 nm and emission of 465 nm at 25 °C.
Turning to `C#CCOCCOCCOCCOCCNC(=O)c1ccc(S(N)(=O)=O)cc1` [N-(3,6,9,12-Tetraoxapentadec-14-ynyl)-4-sulfamoylbenzamide (13)], the concentration for half-maximal inhibition (IC50) came to 0.288 µM.

With `C#CCOCCOCCOCCOCCOCCC(=O)Nc1ccc(C(=O)c2ccc(NC(=O)CCNC(=O)c3ccccc3)cc2)cc1` [N-(4-{4-[3-(Phenylformamido)propanamido]benzoyl}phenyl)-4,7,10,13,16-pentaoxanonadec-18-ynamide (12)], the half-maximal inhibitory concentration (IC50) was > 5000 µM.

`C#CCOCCOCCOCCOCCOCCC(=O)Nc1ccc(C(=O)c2ccc(NC(=O)CCNC(=O)c3ccc(S(N)(=O)=O)cc3)cc2)cc1` [N-[4-(4-{3-[(4-Sulfamoylphenyl)formamido]propanamido}benzoyl)phenyl]-4,7,10,13,16-pentaoxanonadec-18-ynamide (1)] yielded an IC50 of 0.216 µM.

Take `C#CCOCCOCCOCCOCCOCCC(=O)N[C@@H](Cc1cn(-c2ccc(C(=O)c3ccccc3)cc2)nn1)C(=O)NCCc1ccc(S(N)(=O)=O)cc1` [N-[(1S)-2-[1-(4-Benzoylphenyl)-1,2,3-triazol-4-yl]-1-{[2-(4-sulfamoylphenyl)ethyl]carbamoyl}ethyl]-4,7,10,13,16-pentaoxanonadec-18-ynamide (7)]: the concentration for half-maximal inhibition (IC50) came to 0.604 µM.

Consider `CCCOCCOCCOC#COCCOCCC(=O)N[C@@H](Cc1cn(-c2ccc(C(=O)c3ccccc3)cc2)nn1)C(=O)Nc1ccccc1` [N-[(1S)-2-[1-(4-Benzoylphenyl)-1H-1,2,3-triazol-4-yl]-1-(phenylcarbamoyl)ethyl]-4,7,10,13,16-pentaoxanonadec-8-ynamide (15)], for which the concentration for half-maximal inhibition (IC50) is > 5000 µM.

In the case of `C#CCOCCOCCOCCOCCOCCC(=O)N[C@@H](Cc1cn(-c2ccc(C(=O)c3ccccc3)cc2)nn1)C(=O)Nc1ccc(S(N)(=O)=O)cc1` [N-[(1S)-2-[1-(4-Benzoylphenyl)-1H-1,2,3-triazol-4-yl]-1-[(4-sulfamoylphenyl)carbamoyl]ethyl]-4,7,10,13,16-pentaoxanonadec-18-ynamide (9)], the IC50 was determined as 1.55 µM.

`C#CCOCCOCCOCCOCCOCCC(=O)N[C@@H](Cc1cn(-c2ccc(C(=O)c3ccccc3)cc2)nn1)C(=O)NCc1ccc(S(N)(=O)=O)cc1` [N-[(1S)-2-[1-(4-Benzoylphenyl)-1H-1,2,3-triazol-4-yl]-1-{[(4-sulfamoylphenyl)methyl]carbamoyl}ethyl]-4,7,10,13,16-pentaoxanonadec-18-ynamide (8)] returned an IC50 of 3.1 µM.

Regarding `C#CCOCCOCCOCCOCCOCCC(=O)Nc1ccc(C(=O)c2ccc(NC(=O)CCCC(=O)Nc3cccc(S(N)(=O)=O)c3)cc2)cc1` [N-{4-[4-(4,7,10,13,16-Pentaoxanonadec-18-ynamido)benzoyl]-phenyl}-N’-(3-sulfamoylphenyl)pentanediamide (5)], the IC50 worked out at 0.914 µM.

In the case of `C#CCOCCOCCOCCOCCOCCC(=O)Nc1ccc(C(=O)c2ccc(NC(=O)CCCC(=O)Nc3ccc(S(N)(=O)=O)cc3)cc2)cc1` [N-{4-[4-(4,7,10,13,16-Pentaoxanonadec-18-ynamido)benzoyl]-phenyl}-N’-(4-sulfamoylphenyl)pentanediamide (4)], the IC50 was determined as 0.36 µM.

`C#CCOCCOCCOCCOCCOCCC(=O)Nc1ccc(C(=O)c2ccc(NC(=O)CCCC(=O)NCCc3ccc(S(N)(=O)=O)cc3)cc2)cc1` [N-{4-[4-(4,7,10,13,16-Pentaoxanonadec-18-ynamido)benzoyl]-phenyl}-N’-[2-(4-sulfamoylphenyl)ethyl]pentanediamide (2)]: the IC50 was 0.502 µM.

Turning to `C#CCOCCOCCOCCOCCOCCC(=O)Nc1ccc(C(=O)c2ccc(NC(=O)CCCC(=O)NCc3ccc(S(N)(=O)=O)cc3)cc2)cc1` [N-{4-[4-(4,7,10,13,16-Pentaoxanonadec-18-ynamido)benzoyl]-phenyl}-N’-[(4-sulfamoylphenyl)methyl]pentanediamide (3)], the concentration for half-maximal inhibition (IC50) was 1.22 µM.

Molecule `C#CCOCCOCCOCCOCCOCCC(=O)Nc1ccc(C(=O)c2ccc(NC(=O)c3ccc(S(N)(=O)=O)cc3)cc2)cc1` [N-{4-[4-(4-Sulfamoylbenzamido)benzoyl]phenyl}-4,7,10,13,16-pentaoxanonadec-18-ynamide (6)] registered an IC50 of 0.8 µM.

On to `C#CCOCCOCCOCCOCCOCCC(=O)N[C@@H](Cc1cn(-c2ccc(C(=O)c3ccccc3)cc2)nn1)C(=O)Nc1cccc(S(N)(=O)=O)c1` [N-{(1S)-2-[1-(4-Benzoylphenyl)-1H-1,2,3-triazol-4-yl]-1-[(3-sulfamoylphenyl)carbamoyl]ethyl}-4,7,10,13,16-pentaoxanonadec-18-ynamide (10)], for which the half-inhibitory concentration (IC50) was 2.03 µM.

The molecule `C#CCOCCOCCOCCOCCOCCC(=O)N[C@@H](Cc1cn(-c2ccc(C(=O)c3ccccc3)cc2)nn1)C(=O)Nc1nnc(S(N)(=O)=O)s1` [N-{(1S)-2-[1-(4-Benzoylphenyl)-1H-1,2,3-triazol-4-yl]-1-[(5-sulfamoyl-1,3,4-thiadiazol-2-yl)carbamoyl]ethyl}-4,7,10,13,16-pentaoxanonadec-18-ynamide (11)] had an IC50 of 0.139 µM.
